Measurements as given in US6706663B2, “Herbicidal 3-heterocyclic substituted benzisothiazole and benzisoxazole compounds” (Wyeth, priority 2000, dated 2004).

How the values were obtained:
SETVI (Setaria viridis) = assay: Postemergence herbicidal evaluation; format: in vivo, (L.) Beau; conditions: postemergence
Summary of the method: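 Postemergence foliar spray on two-week-old seedlings, dose equivalent to about 0.0040 to 1.000 kg/ha. Ratings use a 0-9 visual scale relative to control at four to five weeks.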

[1] = tested on: ECHCG (Echinochloa crus-galli); assay: Postemergence herbicidal evaluation; format: in vivo, (L.) Beau; conditions: postemergence
Summary of the method: (§1)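 Seedlings grown about two weeks in flats, sprayed, then kept under standard greenhouse care. Rated visually 4–5 weeks after treatment on a 0–9 scale (stand, vigour, malformation, size, chlorosis, overall appearance) relative to untreated control; repeat tests averaged.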

[2] = tested on: ABUTH (Abutilon theophrasti); assay: Postemergence herbicidal evaluation; format: in vivo, Medic.; conditions: postemergence
Summary of the method: as §1

[3] = tested on: IPOHE (Ipomoea hederacea); assay: Postemergence herbicidal evaluation; format: in vivo, (L.) Jacq.; conditions: postemergence
Summary of the method: as §1

ZEAMX (Corn, Field) [4] = assay: Postemergence herbicidal evaluation; format: in vivo, Zea mays, L.; conditions: postemergence
Summary of the method: as §1

GLXMA (Soybean) [5] = assay: Postemergence herbicidal evaluation; format: in vivo, Glycine max, (L.) Merr.; conditions: postemergence
Protocol: In the tests, seedling plants are grown in jiffy flats for about two weeks. The test compounds are dispersed in 50/50 acetone/water mixtures containing 0.5% TWEEN® 20, a polyoxyethylene sorbitan monolaurate surfactant of Atlas Chemical Industries, in sufficient quantities to provide the equivalent of about 0.0040 kg to 1.000 kg per hectare of active compound when applied to the plants through a spray nozzle operating at 40 psi for a predetermined time. After spraying, the plants are placed on greenhouse benches and are cared for in accordance with conventional greenhouse procedures. From four to five weeks after treatment, the seedling plants are examined and rated according to the rating system set forth below. Where more than one test is involved for a given compound, the data are averaged.
Results of herbicide evaluation are expressed on a rating scale (0-9). The scale is based upon a visual observation of plant stand, vigor, malformation, size, chlorosis and overall plant appearance as compared with a control.

[6] = tested on: CHEAL (Chenopodium album); assay: Postemergence herbicidal evaluation; format: in vivo, L.; conditions: postemergence
Summary of the method: as §1

[7] = tested on: AMBEL (Ambrosia artemisifolia); assay: Postemergence herbicidal evaluation; format: in vivo, L.; conditions: postemergence
Summary of the method: as §1

GALAP (Galium aparine) [8] = assay: Postemergence herbicidal evaluation; format: in vivo; conditions: postemergence
Summary of the method: as §1

ZEAMX (Corn, Field) [9] = assay: Preemergence herbicidal evaluation; format: in vivo, Zea mays, L.; conditions: preemergence, rated 4-5 weeks after treatment
ORYSAT (Rice, Tebonnet) [10] = assay: Flooded paddy, post-transplant rice tolerance; format: in vivo, Oryza sativa, (L.) Tebonnet; conditions: flooded paddy, post-transplant rice, rated 3-4 weeks after treatment, 0-9 rating scale
Summary of the method: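 Two ten-day-old seedlings were transplanted into silt loam, flooded and held at 1.5 to 3 cm water above the soil before herbicide treatment. Pots stayed in the greenhouse at that water level. Injury was scored visually on a 0-9 scale versus untreated control.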

[11] = tested on: AMBEL (Ambrosia artemisifolia); assay: Preemergence herbicidal evaluation; format: in vivo, L.; conditions: preemergence, rated 4-5 weeks after treatment
Summary of the method: (§2)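 Scores (0–9) reflect visual comparison with control plants for stand, vigor, malformation, size and chlorosis. Seeds in potting soil received a post-planting spray of compound in aqueous acetone and grew in a greenhouse until assessment 4–5 weeks later.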

[12] = tested on: ECHORC (Echinochloa oryzoides); assay: Flooded paddy, preemergence weed control; format: in vivo, Echinochloa oryzoides (Ard.) Fritsch.; conditions: rated 3-4 weeks after treatment, 0-9 rating scale
Summary of the method: (§3)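 Visual 0-9 rating versus control, scoring stand, vigor, malformation, size, chlorosis and overall appearance. Silt loam soil, propagules in top 0.5 cm; flood depth 1.5–3 cm held for the whole test; greenhouse.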

[13] = tested on: ECHCG (Echinochloa crus-galli); assay: Preemergence herbicidal evaluation; format: in vivo, (L.) Beau; conditions: preemergence, rated 4-5 weeks after treatment
Summary of the method: as §2

[14] = tested on: ABUTH (Abutilon theophrasti); assay: Preemergence herbicidal evaluation; format: in vivo, Medic.; conditions: preemergence, rated 4-5 weeks after treatment
[15] = tested on: TRZAWR (Wheat, Winter, cv Riband); assay: Postemergence herbicidal evaluation; format: in vivo, Triticum aestivum; conditions: postemergence
Summary of the method: as §1

ORYSAT (Rice, Tebonnet) [16] = assay: Postemergence herbicidal evaluation; format: in vivo, Oryza sativa, (L.) Tebonnet; conditions: postemergence
Summary of the method: as §1

[17] = tested on: MOOVA (Monochoria vaginalis); assay: Flooded paddy, preemergence weed control; format: in vivo, Presl.; conditions: rated 3-4 weeks after treatment, 0-9 rating scale
Summary of the method: as §3

[18] = tested on: IPOHE (Ipomoea hederacea); assay: Preemergence herbicidal evaluation; format: in vivo, (L.) Jacq.; conditions: preemergence, rated 4-5 weeks after treatment
GLXMA (Soybean) [19] = assay: Preemergence herbicidal evaluation; format: in vivo, Glycine max, (L.) Merr.; conditions: preemergence, rated 4-5 weeks after treatment
GALAP (Galium aparine) [20] = assay: Preemergence herbicidal evaluation; format: in vivo; conditions: preemergence, rated 4-5 weeks after treatment
Summary of the method: as §2

[21] = tested on: SAGPY (Sagittaria pygmaea); assay: Flooded paddy, preemergence weed control; format: in vivo, L.; conditions: rated 3-4 weeks after treatment, 0-9 rating scale
Summary of the method: as §3

[22] = tested on: GLXMAW (Soybean, Williams); assay: Postemergence herbicidal evaluation; format: in vivo, Glycine max, (L.) Merr. cv Williams; conditions: postemergence
Summary of the method: as §1

[23] = tested on: CASOB (Cassia obtusifolia); assay: Postemergence herbicidal evaluation; format: in vivo, L.; conditions: postemergence
Summary of the method: as §1

CYPIR (Cyperus iria) = assay: Flooded paddy, preemergence weed control; format: in vivo; conditions: rated 3-4 weeks after treatment, 0-9 rating scale
Summary of the method: as §3

CCN=C1NC(=O)C(OC)(c2nsc3ccc(-n4c(=O)cc(C(F)(F)F)n(C)c4=O)cc23)N1 (stereo not shown) [Compound 98, 3-[3[4-methoxy-2-(ethylimino)-5-oxo-4-imidazolidinyl]-1,2-benzisothiazol-5-yl]-1-methyl-6-(trifluoromethyl)uracil]
SETVI herbicidal rating (SETVI (Setaria viridis); rate 0.0320 kg/ha): 3.0 | SETVI herbicidal rating (SETVI (Setaria viridis); rate 0.0620 kg/ha): 3.0 | ECHCG herbicidal rating ([1]; rate 0.0320 kg/ha): 2.0 | ECHCG herbicidal rating ([1]; rate 0.0620 kg/ha): 2.0 | ABUTH herbicidal rating ([2]; rate 0.0320 kg/ha): 9.0 | ABUTH herbicidal rating ([2]; rate 0.0620 kg/ha): 9.0 | IPOHE herbicidal rating ([3]; rate 0.0320 kg/ha): 9.0 | IPOHE herbicidal rating ([3]; rate 0.0620 kg/ha): 8.0 | ZEAMX herbicidal rating (ZEAMX (Corn, Field) [4]; rate 0.0320 kg/ha): 3.5 | ZEAMX herbicidal rating (ZEAMX (Corn, Field) [4]; rate 0.0620 kg/ha): 3.5 | GLXMA herbicidal rating (GLXMA (Soybean) [5]; rate 0.0320 kg/ha): 8.0 | GLXMA herbicidal rating (GLXMA (Soybean) [5]; rate 0.0620 kg/ha): 8.0 | CHEAL herbicidal rating ([6]; rate 0.0320 kg/ha): 6.0 | CHEAL herbicidal rating ([6]; rate 0.0620 kg/ha): 8.0 | AMBEL herbicidal rating ([7]; rate 0.0320 kg/ha): 8.0 | AMBEL herbicidal rating ([7]; rate 0.0620 kg/ha): 8.0

[2-[5-[3,6-dihydro-3-methyl-2,6-dioxo-4-(trifluoromethyl)-1(2H)-pyrimidinyl]-1,2-benzisothiazol-3-1]-1,3-dioxolan-4-yl]methyl thiocyanate [Compound 89]
GALAP herbicidal rating (GALAP (Galium aparine) [8]; rate 0.0080 kg/ha): 2.0 | GALAP herbicidal rating (GALAP (Galium aparine) [8]; rate 0.0320 kg/ha): 3.0 | GALAP herbicidal rating (GALAP (Galium aparine) [8]; rate 0.0620 kg/ha): 7.0 | GALAP herbicidal rating (GALAP (Galium aparine) [8]; rate 0.1250 kg/ha): 9.0 | Preemergence herbicidal rating ZEAMX (ZEAMX (Corn, Field) [9]; rate 0.0620 kg/ha): 0.0 | Preemergence herbicidal rating ZEAMX (ZEAMX (Corn, Field) [9]; rate 0.1250 kg/ha): 3.0 | Preemergence herbicidal rating ZEAMX (ZEAMX (Corn, Field) [9]; rate 0.2500 kg/ha): 4.0 | ORYSAT herbicidal rating (transplanted rice tolerance) (ORYSAT (Rice, Tebonnet) [10]; rate 0.0320 kg/ha): 0.0 | ORYSAT herbicidal rating (transplanted rice tolerance) (ORYSAT (Rice, Tebonnet) [10]; rate 0.1250 kg/ha): 6.0 | Preemergence herbicidal rating AMBEL ([11]; rate 0.0620 kg/ha): 4.0 | Preemergence herbicidal rating AMBEL ([11]; rate 0.1250 kg/ha): 9.0 | Preemergence herbicidal rating AMBEL ([11]; rate 0.2500 kg/ha): 9.0 | ECHORC herbicidal rating ([12]; rate 0.0320 kg/ha): 3.0 | ECHORC herbicidal rating ([12]; rate 0.1250 kg/ha): 5.0 | ECHCG herbicidal rating ([1]; rate 0.0080 kg/ha): 0.0 | ECHCG herbicidal rating ([1]; rate 0.0320 kg/ha): 0.0 | ECHCG herbicidal rating ([1]; rate 0.0620 kg/ha): 3.0 | ECHCG herbicidal rating ([1]; rate 0.1250 kg/ha): 4.0 | Preemergence herbicidal rating ECHCG ([13]; rate 0.0620 kg/ha): 0.0 | Preemergence herbicidal rating ECHCG ([13]; rate 0.1250 kg/ha): 3.0 | Preemergence herbicidal rating ECHCG ([13]; rate 0.2500 kg/ha): 7.0 | Preemergence herbicidal rating ABUTH ([14]; rate 0.0620 kg/ha): 9.0 | Preemergence herbicidal rating ABUTH ([14]; rate 0.1250 kg/ha): 9.0 | Preemergence herbicidal rating ABUTH ([14]; rate 0.2500 kg/ha): 9.0 | ABUTH herbicidal rating ([2]; rate 0.0080 kg/ha): 8.0 | ABUTH herbicidal rating ([2]; rate 0.0320 kg/ha): 9.0 | ABUTH herbicidal rating ([2]; rate 0.0620 kg/ha): 9.0 | ABUTH herbicidal rating ([2]; rate 0.1250 kg/ha): 9.0 | TRZAWR herbicidal rating ([15]; rate 0.0080 kg/ha): 1.5 | TRZAWR herbicidal rating ([15]; rate 0.0320 kg/ha): 3.0 | TRZAWR herbicidal rating ([15]; rate 0.0620 kg/ha): 3.0 | TRZAWR herbicidal rating ([15]; rate 0.1250 kg/ha): 4.0 | IPOHE herbicidal rating ([3]; rate 0.0080 kg/ha): 7.0 | IPOHE herbicidal rating ([3]; rate 0.0320 kg/ha): 9.0 | IPOHE herbicidal rating ([3]; rate 0.0620 kg/ha): 9.0 | IPOHE herbicidal rating ([3]; rate 0.1250 kg/ha): 9.0 | ORYSAT herbicidal rating (ORYSAT (Rice, Tebonnet) [16]; rate 0.0080 kg/ha): 1.5 | ORYSAT herbicidal rating (ORYSAT (Rice, Tebonnet) [16]; rate 0.0320 kg/ha): 3.0 | ORYSAT herbicidal rating (ORYSAT (Rice, Tebonnet) [16]; rate 0.0620 kg/ha): 3.0 | ORYSAT herbicidal rating (ORYSAT (Rice, Tebonnet) [16]; rate 0.1250 kg/ha): 4.0 | MOOVA herbicidal rating ([17]; rate 0.0320 kg/ha): 0.0 | MOOVA herbicidal rating ([17]; rate 0.1250 kg/ha): 8.0 | ZEAMX herbicidal rating (ZEAMX (Corn, Field) [4]; rate 0.0080 kg/ha): 3.0 | ZEAMX herbicidal rating (ZEAMX (Corn, Field) [4]; rate 0.0320 kg/ha): 3.5 | ZEAMX herbicidal rating (ZEAMX (Corn, Field) [4]; rate 0.0620 kg/ha): 3.5 | ZEAMX herbicidal rating (ZEAMX (Corn, Field) [4]; rate 0.1250 kg/ha): 3.5 | Preemergence herbicidal rating IPOHE ([18]; rate 0.0620 kg/ha): 7.0 | Preemergence herbicidal rating IPOHE ([18]; rate 0.1250 kg/ha): 8.0 | Preemergence herbicidal rating IPOHE ([18]; rate 0.2500 kg/ha): 9.0 | Preemergence herbicidal rating GLXMA (GLXMA (Soybean) [19]; rate 0.0620 kg/ha): 3.0 | Preemergence herbicidal rating GLXMA (GLXMA (Soybean) [19]; rate 0.1250 kg/ha): 6.0 | Preemergence herbicidal rating GLXMA (GLXMA (Soybean) [19]; rate 0.2500 kg/ha): 9.0 | Preemergence herbicidal rating GALAP (GALAP (Galium aparine) [20]; rate 0.0620 kg/ha): 3.0 | Preemergence herbicidal rating GALAP (GALAP (Galium aparine) [20]; rate 0.1250 kg/ha): 6.0 | Preemergence herbicidal rating GALAP (GALAP (Galium aparine) [20]; rate 0.2500 kg/ha): 7.0 | SAGPY herbicidal rating ([21]; rate 0.0320 kg/ha): 0.0 | SAGPY herbicidal rating ([21]; rate 0.1250 kg/ha): 9.0 | GLXMAW herbicidal rating ([22]; rate 0.0080 kg/ha): 7.0 | GLXMAW herbicidal rating ([22]; rate 0.0320 kg/ha): 7.5 | GLXMAW herbicidal rating ([22]; rate 0.0620 kg/ha): 8.0 | GLXMAW herbicidal rating ([22]; rate 0.1250 kg/ha): 9.0 | CHEAL herbicidal rating ([6]; rate 0.0080 kg/ha): 8.0 | CHEAL herbicidal rating ([6]; rate 0.0320 kg/ha): 9.0 | CHEAL herbicidal rating ([6]; rate 0.0620 kg/ha): 9.0 | CHEAL herbicidal rating ([6]; rate 0.1250 kg/ha): 9.0 | AMBEL herbicidal rating ([7]; rate 0.0080 kg/ha): 7.0 | AMBEL herbicidal rating ([7]; rate 0.0320 kg/ha): 9.0 | AMBEL herbicidal rating ([7]; rate 0.0620 kg/ha): 9.0 | AMBEL herbicidal rating ([7]; rate 0.1250 kg/ha): 9.0 | CASOB herbicidal rating ([23]; rate 0.0080 kg/ha): 9.0 | CASOB herbicidal rating ([23]; rate 0.0320 kg/ha): 9.0 | CASOB herbicidal rating ([23]; rate 0.0620 kg/ha): 9.0 | CASOB herbicidal rating ([23]; rate 0.1250 kg/ha): 9.0 | CYPIR herbicidal rating (CYPIR (Cyperus iria); rate 0.0320 kg/ha): 0.0 | CYPIR herbicidal rating (CYPIR (Cyperus iria); rate 0.1250 kg/ha): 8.0
